ChEMBL document CHEMBL1130840, “Synthesis and anti-HIV activities of urea-PETT analogs belonging to a new class of potent non-nucleoside HIV-1 reverse transcriptase inhibitors” (Bioorg Med Chem Lett, 1998)

Tested on: MT4
Experiment: Compound was tested for its inhibitory effect on HIV-1 in MT-4 cells
Assay type: functional
Conditions: Homo sapiens, read-out: ED50 (the source's name)

SMILES	EC50
S=C(NCCc1ccccc1)Nc1nccs1	1300 nM

Tested on: Human immunodeficiency virus 1
Experiment: (§1) Antiviral activity was determined against wild type HIV-1 in MT-4 cells infected with HIV-1 IIIB using an XTT assay
Assay type: functional
Conditions: Human immunodeficiency virus 1, MT4; read-out: ED50 (the source's name)

SMILES	EC50
COc1ccc(OC)c(CCNC(=O)Nc2ccc(Cl)cn2)c1F	11 nM
CCOc1ccc(OC)c(CCNC(=O)Nc2ccc(Cl)cn2)c1F	130 nM
CCOc1ccc(F)c(CCNC(=O)Nc2ccc(Br)cn2)c1Cl	70 nM
O=C(NCCc1c(F)cccc1F)Nc1ccc(Cl)cn1	30 nM
CCOc1ccc(F)c([C@H]2C[C@H]2NC(=O)Nc2ccc(Cl)cn2)c1F	8 nM
CCOc1ccc(F)c([C@H]2C[C@H]2NC(=O)Nc2ccc(Cl)cn2)c1Cl	16 nM
O=C(Nc1ccc(Cl)cn1)N[C@@H]1C[C@@H]1c1c(F)cccc1F	6 nM
CCOc1ccc(OC)c([C@H]2C[C@H]2NC(=O)Nc2ccc(Br)cn2)c1F	25 nM
CCOc1ccc(Cl)c([C@H]2C[C@H]2NC(=O)Nc2ccc(Cl)cn2)c1F	8 nM
CCOc1ccc(F)c([C@H]2C[C@H]2NC(=O)Nc2ccc(C#N)cn2)c1Cl	10 nM
COc1ccc(OC)c([C@H]2C[C@H]2NC(=O)Nc2ccc(Cl)cn2)c1F	12 nM
CN(C)c1ccc(F)c(CCNC(=O)Nc2ccc(Br)cn2)c1F	500 nM
COc1ccc(C(C)=O)c(F)c1CCNC(=O)Nc1ccc(Cl)cn1	200 nM
CCc1cc(NCc2nc3c(Cl)ccc(Cl)c3o2)c(O)nc1C [L-697661]	65 nM
Cc1ccnc2c1NC(=O)c1cccnc1N2C1CC1 [NEVIRAPINE]	150 nM
S=C(NCCc1ccccn1)Nc1ccc(Br)cn1 [TROVIRDINE]	20 nM

Tested on: MT4
Experiment: Antiviral activity was determined against wild type HIV- I in MT-4 cells infected with HIV-1 IIIB using an XTT assay which contains 15% human AB serum.
Assay type: functional
Conditions: read-out: ED50 (the source's name)

SMILES	EC50
O=C(Nc1ccc(Cl)cn1)N[C@@H]1C[C@@H]1c1c(F)cccc1F	10 nM

Biological target: Human immunodeficiency virus type 1 reverse transcriptase (Human immunodeficiency virus 1, UniProt Q72547)
Experiment: Inhibitory effect on wild type HIV- 1 reverse transcriptase using rCdG as template and dGTP as substrate.
Conditions: not given

SMILES	IC50
COc1ccc(OC)c(CCNC(=O)Nc2ccc(Cl)cn2)c1F	3 nM
CCOc1ccc(OC)c(CCNC(=O)Nc2ccc(Cl)cn2)c1F	8 nM
CCOc1ccc(F)c(CCNC(=O)Nc2ccc(Br)cn2)c1Cl	4 nM
CCOc1ccc(F)c([C@H]2C[C@H]2NC(=O)Nc2ccc(Cl)cn2)c1F	1.5 nM
CCOc1ccc(F)c([C@H]2C[C@H]2NC(=O)Nc2ccc(Cl)cn2)c1Cl	8 nM
O=C(Nc1ccc(Cl)cn1)N[C@@H]1C[C@@H]1c1c(F)cccc1F	2 nM
CCOc1ccc(OC)c([C@H]2C[C@H]2NC(=O)Nc2ccc(Br)cn2)c1F	7 nM
CCOc1ccc(Cl)c([C@H]2C[C@H]2NC(=O)Nc2ccc(Cl)cn2)c1F	1.5 nM
CCOc1ccc(F)c([C@H]2C[C@H]2NC(=O)Nc2ccc(C#N)cn2)c1Cl	4 nM
COc1ccc(OC)c([C@H]2C[C@H]2NC(=O)Nc2ccc(Cl)cn2)c1F	2 nM
CN(C)c1ccc(F)c(CCNC(=O)Nc2ccc(Br)cn2)c1F	25 nM
COc1ccc(C(C)=O)c(F)c1CCNC(=O)Nc1ccc(Cl)cn1	100 nM

Tested on: Human immunodeficiency virus 1
Experiment: Antiviral activity was determined against HIV-1 (clone 90) in MT-4 cells infected with HIV-1 IIIB using an XTT assay
Assay type: functional
Conditions: Human immunodeficiency virus 1, MT4; read-out: ED50 (the source's name)

SMILES	EC50
COc1ccc(OC)c(CCNC(=O)Nc2ccc(Cl)cn2)c1F	3000 nM
CCOc1ccc(OC)c(CCNC(=O)Nc2ccc(Cl)cn2)c1F	> 27000 nM
CCOc1ccc(F)c(CCNC(=O)Nc2ccc(Br)cn2)c1Cl	8000 nM
O=C(NCCc1c(F)cccc1F)Nc1ccc(Cl)cn1	> 32000 nM
CCOc1ccc(F)c([C@H]2C[C@H]2NC(=O)Nc2ccc(Cl)cn2)c1F	270 nM
CCOc1ccc(Cl)c([C@H]2C[C@H]2NC(=O)Nc2ccc(Cl)cn2)c1F	100 nM
CCOc1ccc(F)c([C@H]2C[C@H]2NC(=O)Nc2ccc(C#N)cn2)c1Cl	530 nM
COc1ccc(OC)c([C@H]2C[C@H]2NC(=O)Nc2ccc(Cl)cn2)c1F	2700 nM
CN(C)c1ccc(F)c(CCNC(=O)Nc2ccc(Br)cn2)c1F	> 25000 nM
COc1ccc(C(C)=O)c(F)c1CCNC(=O)Nc1ccc(Cl)cn1	> 27000 nM
CCc1cc(NCc2nc3c(Cl)ccc(Cl)c3o2)c(O)nc1C [L-697661]	> 11000 nM
Cc1ccnc2c1NC(=O)c1cccnc1N2C1CC1 [NEVIRAPINE]	22000 nM
S=C(NCCc1ccccn1)Nc1ccc(Br)cn1 [TROVIRDINE]	> 5000 nM

Biological target: Human immunodeficiency virus type 1 reverse transcriptase (Human immunodeficiency virus 1, UniProt Q72547, Y181C)
Experiment: Inhibitory effect on recombinant HIV- 1 reverse transcriptase which has a mutation Tyr 181 to Cys 181 (clone 90)
Conditions: not given

SMILES	IC50
COc1ccc(OC)c(CCNC(=O)Nc2ccc(Cl)cn2)c1F	140 nM
CCOc1ccc(OC)c(CCNC(=O)Nc2ccc(Cl)cn2)c1F	500 nM
CCOc1ccc(F)c(CCNC(=O)Nc2ccc(Br)cn2)c1Cl	240 nM
CCOc1ccc(F)c([C@H]2C[C@H]2NC(=O)Nc2ccc(Cl)cn2)c1F	15 nM
CCOc1ccc(F)c([C@H]2C[C@H]2NC(=O)Nc2ccc(Cl)cn2)c1Cl	50 nM
O=C(Nc1ccc(Cl)cn1)N[C@@H]1C[C@@H]1c1c(F)cccc1F	120 nM
CCOc1ccc(OC)c([C@H]2C[C@H]2NC(=O)Nc2ccc(Br)cn2)c1F	90 nM
CCOc1ccc(Cl)c([C@H]2C[C@H]2NC(=O)Nc2ccc(Cl)cn2)c1F	20 nM
CCOc1ccc(F)c([C@H]2C[C@H]2NC(=O)Nc2ccc(C#N)cn2)c1Cl	70 nM
COc1ccc(OC)c([C@H]2C[C@H]2NC(=O)Nc2ccc(Cl)cn2)c1F	270 nM
CN(C)c1ccc(F)c(CCNC(=O)Nc2ccc(Br)cn2)c1F	1500 nM
COc1ccc(C(C)=O)c(F)c1CCNC(=O)Nc1ccc(Cl)cn1	10000 nM
CCc1cc(NCc2nc3c(Cl)ccc(Cl)c3o2)c(O)nc1C [L-697661]	15000 nM
S=C(NCCc1ccccn1)Nc1ccc(Br)cn1 [TROVIRDINE]	3200 nM

Biological target: Human immunodeficiency virus type 1 reverse transcriptase (Human immunodeficiency virus 1, UniProt Q72547, L100I)
Experiment: Inhibitory effect on recombinant HIV- 1 reverse transcriptase which has a mutation Leu 100 to Ile 100 (clone 118)
Conditions: not given

SMILES	IC50
COc1ccc(OC)c(CCNC(=O)Nc2ccc(Cl)cn2)c1F	140 nM
CCOc1ccc(OC)c(CCNC(=O)Nc2ccc(Cl)cn2)c1F	2500 nM
CCOc1ccc(F)c(CCNC(=O)Nc2ccc(Br)cn2)c1Cl	1700 nM
CCOc1ccc(F)c([C@H]2C[C@H]2NC(=O)Nc2ccc(Cl)cn2)c1F	80 nM
CCOc1ccc(F)c([C@H]2C[C@H]2NC(=O)Nc2ccc(Cl)cn2)c1Cl	80 nM
O=C(Nc1ccc(Cl)cn1)N[C@@H]1C[C@@H]1c1c(F)cccc1F	30 nM
CCOc1ccc(OC)c([C@H]2C[C@H]2NC(=O)Nc2ccc(Br)cn2)c1F	240 nM
CCOc1ccc(Cl)c([C@H]2C[C@H]2NC(=O)Nc2ccc(Cl)cn2)c1F	50 nM
CCOc1ccc(F)c([C@H]2C[C@H]2NC(=O)Nc2ccc(C#N)cn2)c1Cl	80 nM
COc1ccc(OC)c([C@H]2C[C@H]2NC(=O)Nc2ccc(Cl)cn2)c1F	270 nM
CN(C)c1ccc(F)c(CCNC(=O)Nc2ccc(Br)cn2)c1F	> 2500 nM
COc1ccc(C(C)=O)c(F)c1CCNC(=O)Nc1ccc(Cl)cn1	1100 nM
CCc1cc(NCc2nc3c(Cl)ccc(Cl)c3o2)c(O)nc1C [L-697661]	1600 nM
S=C(NCCc1ccccn1)Nc1ccc(Br)cn1 [TROVIRDINE]	700 nM

Tested on: Human immunodeficiency virus 1
Experiment: Antiviral activity was determined against HIV-1 (clone 118) in MT-4 cells infected with HIV-1 IIIB using an XTT assay
Assay type: functional
Conditions: Human immunodeficiency virus 1, MT4; read-out: ED50 (the source's name)

SMILES	EC50
COc1ccc(OC)c(CCNC(=O)Nc2ccc(Cl)cn2)c1F	17000 nM
CCOc1ccc(OC)c(CCNC(=O)Nc2ccc(Cl)cn2)c1F	14000 nM
CCOc1ccc(F)c(CCNC(=O)Nc2ccc(Br)cn2)c1Cl	15000 nM
O=C(NCCc1c(F)cccc1F)Nc1ccc(Cl)cn1	32000 nM
CCOc1ccc(F)c([C@H]2C[C@H]2NC(=O)Nc2ccc(Cl)cn2)c1F	750 nM
CCOc1ccc(F)c([C@H]2C[C@H]2NC(=O)Nc2ccc(Cl)cn2)c1Cl	100 nM
CCOc1ccc(Cl)c([C@H]2C[C@H]2NC(=O)Nc2ccc(Cl)cn2)c1F	100 nM
CCOc1ccc(F)c([C@H]2C[C@H]2NC(=O)Nc2ccc(C#N)cn2)c1Cl	270 nM
COc1ccc(OC)c([C@H]2C[C@H]2NC(=O)Nc2ccc(Cl)cn2)c1F	1600 nM
CN(C)c1ccc(F)c(CCNC(=O)Nc2ccc(Br)cn2)c1F	> 25000 nM
COc1ccc(C(C)=O)c(F)c1CCNC(=O)Nc1ccc(Cl)cn1	> 27000 nM
CCc1cc(NCc2nc3c(Cl)ccc(Cl)c3o2)c(O)nc1C [L-697661]	850 nM
Cc1ccnc2c1NC(=O)c1cccnc1N2C1CC1 [NEVIRAPINE]	620 nM
S=C(NCCc1ccccn1)Nc1ccc(Br)cn1 [TROVIRDINE]	800 nM

Tested on: Human immunodeficiency virus 1
Experiment: as §1
Assay type: functional
Conditions: Human immunodeficiency virus 1, MT4; read-out: ED50 (the source's name)

SMILES	EC50
COc1ccc(OC)c(CCNC(=O)Nc2ccc(Cl)cn2)c1F	90 nM
O=C(NCCc1c(F)cccc1F)Nc1ccc(Cl)cn1	850 nM
CCOc1ccc(F)c([C@H]2C[C@H]2NC(=O)Nc2ccc(Cl)cn2)c1F	30 nM
CCOc1ccc(F)c([C@H]2C[C@H]2NC(=O)Nc2ccc(Cl)cn2)c1Cl	60 nM
CCOc1ccc(OC)c([C@H]2C[C@H]2NC(=O)Nc2ccc(Br)cn2)c1F	400 nM
CCOc1ccc(Cl)c([C@H]2C[C@H]2NC(=O)Nc2ccc(Cl)cn2)c1F	100 nM
CCOc1ccc(F)c([C@H]2C[C@H]2NC(=O)Nc2ccc(C#N)cn2)c1Cl	20 nM
COc1ccc(OC)c([C@H]2C[C@H]2NC(=O)Nc2ccc(Cl)cn2)c1F	100 nM
S=C(NCCc1ccccn1)Nc1ccc(Br)cn1 [TROVIRDINE]	5000 nM
